The source of these data is patent US20140023611A1 (priority 2010, published 2014).

pIC50: −log10 of the molar value.

One test deals with T1, human NaP2b (SLC34A2) (Homo sapiens, UniProt O95436).
T1 construct: host or cells: HEK293
T1 sequence (O95436 1-690): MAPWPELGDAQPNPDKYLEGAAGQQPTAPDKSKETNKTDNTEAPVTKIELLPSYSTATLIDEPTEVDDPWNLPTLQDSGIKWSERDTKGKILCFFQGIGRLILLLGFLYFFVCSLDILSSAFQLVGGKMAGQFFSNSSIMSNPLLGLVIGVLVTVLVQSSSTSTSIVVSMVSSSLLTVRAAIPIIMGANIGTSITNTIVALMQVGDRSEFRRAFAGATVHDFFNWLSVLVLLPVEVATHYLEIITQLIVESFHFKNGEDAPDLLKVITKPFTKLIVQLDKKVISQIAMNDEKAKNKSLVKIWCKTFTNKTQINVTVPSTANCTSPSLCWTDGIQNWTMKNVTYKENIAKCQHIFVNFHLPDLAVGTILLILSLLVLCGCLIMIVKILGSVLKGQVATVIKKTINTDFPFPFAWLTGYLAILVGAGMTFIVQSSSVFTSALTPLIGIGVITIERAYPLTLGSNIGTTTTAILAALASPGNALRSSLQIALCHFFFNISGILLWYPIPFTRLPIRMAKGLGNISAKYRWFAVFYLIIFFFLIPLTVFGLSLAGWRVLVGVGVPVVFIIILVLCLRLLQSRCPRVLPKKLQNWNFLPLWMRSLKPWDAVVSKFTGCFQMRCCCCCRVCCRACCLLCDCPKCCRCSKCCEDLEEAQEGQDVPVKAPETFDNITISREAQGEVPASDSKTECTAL
Briefly: Inhibition of NaP2b-mediated Pi (33P) uptake in transfected HEK293 cells, human NaP2b. The test is classed as cell-based. Conditions: read-out: pIC50 range for human NaP2b (converted). On the procedure: HEK293 cells were obtained from the American Type Culture collection and propagated per their instructions. Expression clones for rat and human NaP2b (SLC34A2) were obtained from Open Biosystems (Catalog numbers MRN1768-9510282, and MHS1010-99823026, respectively). The sequence of the human protein was mutated to insert a threonine after residue 37, and to introduce a N39D mutation.
The rate of phosphate (Pi) uptake into HEK293 cells was measured using a modification of the method described by Mohrmann et al. (Mohrmann, I., Mohrmann, M., Biber, J., and Murer, H. (1986) Am. J. Phys. 250(3 Pt 1):G323-30.) Transfected HEK293 cells were treated with a pharmacological agent to minimize endogenous PiT-mediated phosphate transport activity, such that the only remaining sodium-dependent phosphate transport activity is that which was bestowed by introduction of the NaP2b genes.
Cells were seeded into 96-well plates at 25,000 cells/well and cultured overnight. Lipofectamine 2000 (Invitrogen) was used to introduce the NaP2b cDNA, and the cells were allowed to approach confluence during a second overnight incubation. […] Cells were then overlayed with either choline uptake buffer or sodium uptake buffer (14 mM Tris, 137 mM sodium chloride, 5.4 mM KCl, 2.8 mM CaCl2, 1.2 mM MgSO4, 100 uM KH2PO4, PiT-silencing agent, 1 mg/mL Bovine Serum Albumin, pH 7.4) containing 6-9 uCi/mL ^33P orthophosphoric acid (Perkin Elmer) and test compound. Each compound was tested at twelve concentrations ranging from 0.1 nM to 30 uM. Assays were run in duplicate.
After incubation for 3-30 minutes at room temperature, assay mixtures were removed, and the cells were washed twice with ice cold stop solution (137 mM sodium chloride, 14 mM Tris, pH 7.4). Cells were lysed by addition of 20 μL 0.1% Tween 80 followed by 100 μL scintillation fluid, and counted using a TopCount (Perkin Elmer).
pIC50 (the negative log of the IC50) values of the test compounds were calculated using GraphPad Prism.

A further test deals with T2, rat NaP2b (SLC34A2) (Rattus norvegicus, UniProt Q9JJ09).
T2 construct: host or cells: HEK293
T2 sequence (Q9JJ09 1-695): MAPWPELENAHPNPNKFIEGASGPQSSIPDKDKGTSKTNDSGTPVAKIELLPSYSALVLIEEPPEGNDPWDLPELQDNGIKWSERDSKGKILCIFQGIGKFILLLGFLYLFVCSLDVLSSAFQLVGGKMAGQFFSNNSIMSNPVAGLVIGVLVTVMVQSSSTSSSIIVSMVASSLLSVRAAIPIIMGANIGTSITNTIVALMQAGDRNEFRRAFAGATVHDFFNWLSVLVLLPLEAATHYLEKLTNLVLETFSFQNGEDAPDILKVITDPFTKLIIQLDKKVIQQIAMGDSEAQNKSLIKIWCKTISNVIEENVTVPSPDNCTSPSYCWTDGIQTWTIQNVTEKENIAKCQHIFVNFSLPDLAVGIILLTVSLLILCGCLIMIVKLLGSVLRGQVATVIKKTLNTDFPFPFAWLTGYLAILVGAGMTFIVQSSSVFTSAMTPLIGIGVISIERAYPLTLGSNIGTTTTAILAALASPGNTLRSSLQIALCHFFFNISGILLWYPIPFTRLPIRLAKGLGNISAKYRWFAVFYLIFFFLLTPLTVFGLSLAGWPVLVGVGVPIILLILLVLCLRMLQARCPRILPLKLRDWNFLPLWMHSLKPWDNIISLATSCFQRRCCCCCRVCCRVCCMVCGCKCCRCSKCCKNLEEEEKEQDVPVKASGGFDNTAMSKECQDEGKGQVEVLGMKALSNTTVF
Briefly: Inhibition of NaP2b-mediated Pi (33P) uptake in transfected HEK293 cells, rat NaP2b. Type of test: cell-based. Particulars: 33P Pi uptake, 0.1 mM phosphate, value given as pIC50 range. In short, it runs like this: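 The cells transiently expressed NaP2b after Lipofectamine transfection. Each compound was run in duplicate over twelve concentrations, 0.1 nM–30 uM.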

Consider `CCN(CC)c1ccc(NC(=O)c2cccc(C(=O)N(C)CCN(C)CCOCCOCCOCCNC(=O)NCCN3CCOCC3)c2)c(-c2cc(C(=O)N[C@H]3CCCc4ccccc43)ccn2)c1` [Example 223, (S)—N1-(4-(diethylamino)-2-(4-(1,2,3,4-tetrahydronaphthalen-1-ylcarbamoyl)pyridin-2-yl)phenyl)-N3-methyl-N3-(17-methyl-1-morpholino-4-oxo-8,11,14-trioxa-3,5,17-triazanonadecan-19-yl)isophthalamide], for which, at human NaP2b (SLC34A2), the IC50 was greater than 31.6 µM. The pIC50 (usually −log10 of the IC50, conventionally taken in molar units) against rat NaP2b (SLC34A2) is 4.50 to 5.00.

As to `CCN(CC)c1ccc(NC(=O)c2cccc(C(=O)N(C)CCN(C)CCOCCOCCOCCNS(C)(=O)=O)c2)c(-c2cc(C(=O)N[C@H]3CCCc4ccccc43)ccn2)c1` [Example 226, 3-N-[4-(diethylamino)-2-(4-{[(1S)-1,2,3,4-tetrahydronaphthalen-1-yl]carbamoyl}pyridin-2-yl)phenyl]-1-N-(1-methanesulfonamido-12-methyl-3,6,9-trioxa-12-azatetradecan-14-yl)-1-N-methylbenzene-1,3-dicarboxamide], at human NaP2b (SLC34A2), the IC50 is 1 to 7.94 µM. In addition, the pIC50 at rat NaP2b (SLC34A2) was greater than 6.00.

As to `CCN(CC)c1ccc(NC(=O)c2cccc(C(=O)N(C)CCN3CCN(C(=O)COCCOCCOCCOCCOCCOCCOCCOC)CC3)c2)c(-c2cc(C(=O)N[C@H]3CCCc4ccccc43)ccn2)c1` [Example 227, (S)—N1-(2-(4-2,5,8,11,14,17,20,23-octaoxapentacosanepiperazin-1-yl)ethyl)-N3-(4-(diethylamino)-2-(4-(1,2,3,4-tetrahydronaphthalen-1-ylcarbamoyl)pyridin-2-yl)phenyl)-N1-methylisophthalamide], the IC50 on human NaP2b (SLC34A2) is 1 to 7.94 µM. Also, the negative logarithm of the IC50 (pIC50) on rat NaP2b (SLC34A2) was 5.10 to 6.00.

Turning to `CN(CCN1CCN(C(=O)N(C)CCOCCOCCOCCC(=O)OC(C)(C)C)CC1)C(=O)c1cccc(C(=O)Nc2ccc(N3CCCCC3)cc2-c2cc(C(=O)N[C@H]3CCCc4ccccc43)ccn2)c1` [Example 229, tert-butyl 3-[2-(2-{2-[methyl(4-{2-[N-methyl-1-(3-{[4-(piperidin-1-yl)-2-(4-{[(1S)-1,2,3,4-tetrahydronaphthalen-1-yl]carbamoyl}pyridin-2-yl)phenyl]carbamoyl}phenyl)formamido]ethyl}piperazin-1-yl)carbonylamino]ethoxy}ethoxy)ethoxy]propanoate], the IC50 on human NaP2b (SLC34A2) was less than 1 µM. This compound also gave a pIC50 on rat NaP2b (SLC34A2) greater than 6.00.

`CCN(CC)c1ccc(NC(=O)c2cccc(C(=O)N(C)CCN3CCN(C(=O)OCCOCCOCCOCCOCCOCCOCCOC)CC3)c2)c(-c2cc(C(=O)N[C@H]3CCCc4ccccc43)ccn2)c1` [Example 230, (S)-2,5,8,11,14,17,20-heptaoxadocosan-22-yl 4-(2-(3-(4-(diethylamino)-2-(4-(1,2,3,4-tetrahydronaphthalen-1-ylcarbamoyl)pyridin-2-yl)phenylcarbamoyl)-N-methylbenzamido)ethyl)piperazine-1-carboxylate]: on human NaP2b (SLC34A2), the IC50 was 1 to 7.94 µM. For the same compound, the pIC50 on rat NaP2b (SLC34A2) was 5.10 to 6.00.

As for `CCN(CC)c1ccc(NC(=O)c2cccc(C(=O)N(C)CCN3CCN(C(=O)N(C)CCOCCOCCOCCC(=O)N4CCN(CCOCCO)CC4)CC3)c2)c(-c2cc(C(=O)N[C@H]3CCCc4ccccc43)ccn2)c1` [Example 231, 3-N-[4-(diethylamino)-2-(4-{[(1S)-1,2,3,4-tetrahydronaphthalen-1-yl]carbamoyl}pyridin-2-yl)phenyl]-1-N-(2-{4-[(2-{2-[2-(3-{4-[2-(2-hydroxyethoxy)ethyl]piperazin-1-yl}-3-oxopropoxy)ethoxy]ethoxy}ethyl)(methyl)carbamoyl]piperazin-1-yl}ethyl)-1-N-methylbenzene-1,3-dicarboxamide], the IC50 at human NaP2b (SLC34A2) was 10 to 31.6 µM. For the same compound, the pIC50 against rat NaP2b (SLC34A2) is 4.50 to 5.00.

On to `CN(CCOCCOCCOCCC(=O)N1CCN(CCOCCO)CC1)C(=O)Cc1cccc(SCc2cccc(C(=O)Nc3ccc(N4CCCCC4)cc3-c3cc(C(=O)N[C@H]4CCCc5ccccc54)ccn3)c2)c1` [Example 236, (S)-2-(2-(3-((3-(15-(4-(2-(2-hydroxyethoxy)ethyl)piperazin-1-yl)-3-methyl-21-2.15-dioxo-6,9,12-trioxa-3-azapentadecyl)phenylthio)methyl)benzamido)-5-(piperidin-1-yl)phenyl)-N-(1,2,3,4-tetrahydronaphthalen-1-yl)isonicotinamide], for which the IC50 at human NaP2b (SLC34A2) was less than 1 µM. Also, the pIC50 at rat NaP2b (SLC34A2) is greater than 6.00.

As for `CN(CCN1CCOC[C@H]1C(=O)N(C)CCOCCOCCOCCC(=O)OC(C)(C)C)C(=O)c1cccc(C(=O)Nc2ccc(N3CCCCC3)cc2-c2cc(C(=O)N[C@H]3CCCc4ccccc43)ccn2)c1` [Example 242, tert-butyl 2-methyl-1-((S)-4-(2-(N-methyl-3-(4-(piperidin-1-yl)-2-(4-((S)-1,2,3,4-tetrahydronaphthalen-1-ylcarbamoyl)pyridin-2-yl)phenylcarbamoyl)benzamido)ethyl)morpholin-3-yl)-1-oxo-5,8,11-trioxa-2-azatetradecan-14-oate], on human NaP2b (SLC34A2), the IC50 is less than 1 µM. For the same compound, at rat NaP2b (SLC34A2), the negative-log IC50 (pIC50) is greater than 6.00.

Consider `CN(CCN1CCOC[C@H]1C(=O)N(C)CCOCCOCCOCCC(=O)O)C(=O)c1cccc(C(=O)Nc2ccc(N3CCCCC3)cc2-c2cc(C(=O)N[C@H]3CCCc4ccccc43)ccn2)c1` [Example 243, 2-methyl-1-((S)-4-(2-(N-methyl-3-(4-(piperidin-1-yl)-2-(4-((S)-1,2,3,4-tetrahydronaphthalen-1-ylcarbamoyl)pyridin-2-yl)phenylcarbamoyl)benzamido)ethyl)morpholin-3-yl)-1-oxo-5,8,11-trioxa-2-azatetradecan-14-oic acid], for which the IC50 on human NaP2b (SLC34A2) is 10 to 31.6 µM. At rat NaP2b (SLC34A2), the negative logarithm of the IC50 (pIC50) is 4.50 to 5.00.

In the case of `CN(CCN1CCC(C(=O)OC(C)(C)C)CC1)C(=O)c1cccc(C(=O)Nc2ccc(N3CCCCC3)cc2-c2cc(C(=O)N[C@H]3CCCc4ccccc43)ccn2)c1` [Example 244, (S)-tert-butyl 1-(2-(N-methyl-3-(4-(piperidin-1-yl)-2-(4-(1,2,3,4-tetrahydronaphthalen-1-ylcarbamoyl)pyridin-2-yl)phenylcarbamoyl)benzamido)ethyl)piperidine-4-carboxylate], the IC50 on human NaP2b (SLC34A2) was 1 to 7.94 µM. Moreover, the negative logarithm of the IC50 (pIC50) at rat NaP2b (SLC34A2) is 5.10 to 6.00.
